# Results reported in US20230390287A1, “MODULATORS OF PD-L1/PD-1 INTERACTION AND USES THEREOF” (Ramot at Tel-Aviv University Ltd., priority 2021, published 2023).
# Entries after “also recorded” stand apart in the source; their conditions may differ.
# What was measured:
# [1] = test system: PD-1/PD-L1 interaction on MDA-MB-231 cells; test: Cell-based PD-1/PD-L1 inhibition (accessible PD-L1 by flow cytometry), MDA-MB-231; set-up: species or system human; settings: Homo sapiens, 72 hours
# Experimental: PD-1/PD-L1 Inhibition on Human Melanoma and Breast Cancer Cell Lines:
# Cells (0.1×10^6 cells) were tested for PD-1/PD-L1 inhibition by co-incubation of hit compounds, DMSO (background), BMS-202 (Selleckchem) and anti-human PD-L1 (BioxCell, Clone 29E.2A3) (positive controls) for 72 hours in 2 ml DMEM medium. Non-confluent cell cultures were scraped into single-cell suspension, washed with PBS, and counted. Cells were subsequently stained with PD-1 fluorescent proxy for 30 minutes at 4° C., washed twice and resuspended in FACS buffer. Cells were analyzed using BD LSRFortessa (BD Biosciences) and data analyzed with FlowJo software for Mac (FlowJo, LLC 2013-2016). Mean fluorescence intensity (MFI) was derived from each sample. The PD-1/PD-L1 inhibition in cells was measured by a decrease in MFI relative to background.
# The selected cell lines were incubated with the selected compounds to assess compound-binding affinities, and consequently PD-1/PD-L1 inhibition. The levels of remaining accessible PD-L1 in these cells were evaluated by FACS analysis using a fluorescence PD-1 proxy. To understand compound activity, different incubation times (24, 48 and 72 hours) were evaluated on MDA-MB-231 breast cancer cell line.
# The remaining accessible PD-L1 was determined by flow cytometry.
# [2] = test system: patient-derived melanoma (Mel4) spheroids with autologous PBMC; test: 3D patient-derived melanoma spheroid - PBMC co-culture; type: cell-based, human; settings: vs αPD-L1 and untreated
# Experimental: 3D Patient-Derived Tumor Spheroids—Lymphocyte Co-Culture:
# After isolation of tumor cells, cells were washed and cultured for up to 3 days. This allowed the isolation of adherent cells that were then scrapped and seeded in Nunclon Sphera 96-well plate (Thermo Fisher Scientific) to create a unique uniform spheroid in each well. Spheroids were ready on day 2-5. Thereafter, spheroids were embedded in reduced growth Matrigel (Corning) with PBMC (1:100) and were left untreated or were treated with the small-molecule inhibitor Compound 69 or αPD-L1, dissolved in the appropriate cell culture medium.
# 3D co-culture was fixed with 4% paraformaldehyde and blocked by PBS with 2% (m/v) BSA. Thereafter, the samples were incubated with CD8 (MA5-16345—Invitrogen) (1:50) in PBS with 1% (v/v) Tween® 20 for 18 hours at 4° C. Then, 4 μg/ml of secondary antibody (A-11008, Invitrogen) were added, 3D spheroids were stained with Hoechst 33342 (10 μg/ml) for 20 minutes. […] The different z-stacks were merged and analyzed by Fiji-ImageJ.
# The ability of PD-1/PD-L1 inhibitors (small-molecule inhibitor Compound 69 and αPD-L1) to promote CD8^+ T-cell infiltration into the tumor site was evaluated using a 3D co-culture system. […] The CD8^+ T-cell infiltration (green) was evaluated after 72 hours of co-culture by confocal microscopy. […]
# [3] = target: PD-1/PD-L1 interaction (Homo sapiens (Human), UniProt Q9NZQ7); test: HTRF PD-1/PD-L1 binding assay; type: biochemical; set-up: key to HTF assay (100 μM): +: positive compounds using 100 μM on HTRF
# [4] = test system: patient-derived tumor cells and autologous PBMC (CD8+ T cells); test: Co-culture of patient-derived PBMC and autologous tumor cells; type: cell-based, human; settings: 72 hours of co-culture; 7 patients
# Experimental: Tumor—Lymphocyte Co-Culture:
# One day before co-culture, PBMC were re-suspended in RPMI-1640 supplemented with 150 U/ml IL-2 (Peprotech) and cultured overnight at 37° C. Prior to co-culture, tumor cells were stimulated overnight with 200 ng/ml human recombinant IFN-γ (Peprotech). The next day, tumor cells were scraped to single cells and re-suspended in RPMI. PBMC were seeded at a density of […] and stimulated with single cell-dissociated tumor cells at a 2:1 Effector:Target ratio. Co-cultures were performed in the presence of 150 U/ml IL-2 (Peprotech), 5 μg/ml of anti-CD28 (BioxCell) and αPD-L1 blocking antibody or small-molecule inhibitor for 72 hours. The cells were then stained with fluorochrome-labeled antibodies and analyzed using an LSR Fortessa (BD Biosciences) and FlowJo software. […]
# The PBMC and tumor cells were co-cultured and treated with anti-CD28 (blue) and PD-L1 inhibitors (small-molecule inhibitor Compound 69 (yellow) and anti-PD-L1 (red)) for 72 hours. The PD-1/PD-L1 inhibition and T-cell activation were assessed using flow cytometry, and the obtained data is shown in FIGS. 8B-E. The anti-PD-L1 (αPD-L1) was added as the relevant control for PD-L1 inhibition.
# Chain of PD-1/PD-L1 interaction (Q9NZQ7 19-238): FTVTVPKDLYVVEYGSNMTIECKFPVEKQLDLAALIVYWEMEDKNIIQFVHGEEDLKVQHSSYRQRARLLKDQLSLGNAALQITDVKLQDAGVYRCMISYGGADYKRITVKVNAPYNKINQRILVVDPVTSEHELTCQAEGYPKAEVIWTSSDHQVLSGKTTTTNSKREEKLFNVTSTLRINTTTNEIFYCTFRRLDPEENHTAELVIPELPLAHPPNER
smiles,measurement,setting,value
CCCCCN(CCCCC)C(C)C(=O)c1cc(C)c2ccc3cc(C(C)C)ccc3c2c1.Cl (stereo not drawn) [Compound 69],IC50,[1],1000 nM
same,CD8+ T cell infiltration within the tumor spheroid,[2]; 72 hours of co-culture,higher CD8^+ T cell infiltration
same,sprouting of patient-derived melanoma cells,[2]; Mel4 spheroids,inhibited the melanoma cells sprouting; also recorded: strongly inhibited the sprouting
same,IC50,[3]; HTRF dose-response starting from 100 μM,196 nM
same,IC50,"[3]; Table A, HTRF dose-response, NA = Not applicable (No dose-response effect)",196 nM
same,IC50,"[3]; Table B, HTRF dose-response, NA = no dose-response effect",196 nM
same,HTF assay (100 μM),"[3]; compounds at 100 μM, hits defined as at least 50% inhibition of PD-1/PD-L1 interaction",+
same,CD107a upregulation in CD8+ T cells,[4],induced
same,IFN-γ secretion in CD8+ T cells,[4],induced
